# Assay results published in patent US12310974B1, “Method of treating post-traumatic stress disorder with carpipramine” (priority 2023, dated 2025).
# Tests used:
# [1] = test system: rats subjected to psychosocial stress; assay: Elevated plus maze (EPM) after predator exposure and housing instability; assay type: in vivo; details: daily i.p. 21 days: carpipramine 5, sertraline 5, amitriptyline 2, quetiapine 10 mg/kg, 5 min on EPM
# Protocol: (§1) An experiment was conducted to assess the effects of carpipramine, sertraline, amitriptyline and quetiapine in rates subjected to psychosocial stress (predator exposure and housing instability) against PTSD-like behaviours, based on a protocol adapted from Zoladz et al (2012).
# (§2) Adult male Sprague-Dawley rats were used in all experiments. Fifty (50) rats were pair-housed on a 12-h light/dark schedule in cages with free access to food and water.
# (§3) Following a 1-week acclimation phase, they were given two 1-h cat exposures, separated by 10 days, in conjunction with daily social stress in the form of randomized housing. During each of the two cat exposures, rats were placed in a perforated wedge-shaped Plexiglas enclosure. The rats, still immobilized within the Plexiglas enclosure, were taken to the cat housing room where they were placed in a metal cage with an adult female cat for 1 hour. The Plexiglas enclosure prevented any physical contact between the cat and rats, but enabled the rats to be exposed to all non-tactile sensory stimuli associated with the cat. The two cat exposures were separated by 10 days, with the first exposure taking place during the light cycle, and the second exposure taking place during the dark cycle. Beginning on the day of the first cat exposure, rats were exposed to unstable housing conditions for the next 31 days. They were housed two rats per cage, with their cohort pair combination changed on a daily basis during the entire 31-day stress period.
# (§4) The rats were randomly assigned to 5 groups of 10, treated with carpipramine, sertraline, amitriptyline, quetiapine and saline. The treatments were administered as daily intraperitoneal injections over 21 days, starting from the day following the second cat exposure. Daily doses were as following: • Carpipramine: 5 mg/kg • Sertraline: 5 mg/kg • Amitriptyline: 2 mg/kg • Quetiapine: 10 mg/kg
# Twenty-four hours after fear conditioning memory testing, the rats were placed on an elevated plus maze (EPM) for 5 minutes. The EPM is a routine test of anxiety in rodents and consists of two open arms and two closed arms of same size (11 cm by 50 cm) that intersect each other to form the shape of a plus sign. At the beginning of each trial, the rats were placed in the intersection area of the EPM, facing one of the open arms. The primary dependent measures of interest were the amount of time rats spent in the open arms and their overall ambulations.
# PTSD patients = assay: Clinical case reports of patients with PTSD; assay type: in vivo, human
# Source text: A person was referred to a psychiatrist by […] general practitioner as they suffered from anxiety, sleep problems and nightmares. […] They were on leave from their position as a teacher. The subject was diagnosed with PTSD and a cognitive behavioural therapy was initiated.
# A patient was followed by a psychiatrist due to depression symptoms, including sadness, feeling of hopelessness, apathy and anxiety. […] Fluoxetine was stopped after 6 months. About one year later, the depression symptoms recurred, alongside with auditory hallucinations. The patient was then. […] Three months later, fluoxetine was reintroduced alongside with risperidone. The patient's mood improved, but they still suffered from anxiety and auditory hallucinations. After 6 weeks with the combination of risperidone and fluoxetine, risperidone was replaced by carpipramine (150 mg/day).
# A veteran presented to a psychiatrist with major depressive disorder (sadness, irritability, poor concentration, suicidal thoughts). […] New symptoms emerged, including nightmares and anxiety. […] Three months later, the patient relapsed, and was experiencing anxiety symptoms, nightmares and mildly depressed mood. The relapse was treated with carpipramine (initiated at 200 mg/day), which led to remission after 4 weeks of treatment. The patient's condition was stable for about 3 years. The symptoms (anxiety, nightmares, moderately depressed mood) reappeared after that time, together with hallucinations and flashbacks of combat. The diagnostic of PTSD was then established. Carpipramine (200 mg/day) was prescribed again, following the previous experience. The patient entered remission after 3 weeks of treatment.
# [2] = test system: rats subjected to psychosocial stress; assay: Cue memory test after predator exposure and housing instability; assay type: in vivo; details: daily i.p. 21 days: carpipramine 5, sertraline 5, amitriptyline 2, quetiapine 10 mg/kg, last 3 minutes (tone)
# Protocol: as §1, §2, §3, §4
# (§5) Since a major component of PTSD is the persistent memory of a traumatic experience, a method with which to measure a rat's memory for the cat exposure experiences was used. Thus, rats were given a predator-based form of fear conditioning. The rats were placed in a chamber for 3 minutes immediately prior to each of the two cat exposures. The chamber consisted of two aluminium sides, an aluminium ceiling and clear Plexiglas on the front and back walls and speaker on one wall. A 74 dB, 2500 Hz tone was presented during the last 30 seconds of each chamber exposure. Three weeks following the second cat exposure, the rats were tested for their conditioned fear memory by assessing their freezing response (degree of immobility) when they were returned to the chamber and exposed to the tone. […] For the cue memory test, the percentage of immobile time was measured during the last 3 minutes (i.e. during the tone).
# [3] = test system: rats subjected to psychosocial stress; assay: Context memory test after predator exposure and housing instability; assay type: in vivo; details: daily i.p. 21 days: carpipramine 5, sertraline 5, amitriptyline 2, quetiapine 10 mg/kg, 5 min in chamber
# Protocol: as §1, §2, §3, §4, §5
# DA receptors = details: rat striatum in vitro; order of potency Y-516 > clocapramine > carpipramine; cited from earlier work
# socially isolated mice [4] = assay: Forced swim test after social isolation (depressive-like behaviour); assay type: in vivo; details: forced swim day 36 vs pre-test day 21, minutes 3 to 6; daily s.c. for 2 weeks: carpipramine 5 mg/kg, paroxetine 1 mg/kg, olanzapine 0.3 mg/kg
# Protocol: The mice were socially isolated for a period of 3 weeks in individual cages, with a 12-hour light/dark cycle. They had access to food and water at libitum. On day 21, a pre-test was performed. Cylindrical tanks were filled with water (approximately 25° C.) to a depth that prevents mice from touching the bottom. Each mouse was placed in a water-filled cylinder for 6 minutes. If the mouse was swimming or struggling after 6 minutes, it was gently submerged, so that it would struggle under the surface for up to 20 seconds. After this time elapsed, the mouse was removed from the container and placed in a transient drying cage with a heat lamp above it and a heat pad under it. The mice were closely and continuously monitored while recovering in this cage. […] The test was performed on day 36. Mice were placed again in water-filled cylinders for 6 minutes, and then moved to a drying cage. The behaviour of mice was coded over the minutes 3 to 6 of each test, in 3 categories: immobile, struggling and swimming. The time associated with each type of behaviour was recorded. A reduction in immobility time is considered predictive of antidepressant properties.
# socially isolated mice [5] = assay: Contextual fear conditioning and extinction (freezing) in socially isolated mice; assay type: in vivo; details: for Change in duration of freezing, mean: carpipramine 10 mg/kg s.c., change from day 1
# Source text: Socially isolated mice express a decrease in corticolimbic allopregnanolone levels that is associated with an enhancement of contextual fear responses and impaired fear extinction. Social isolation can be seen as a prolonged stress that is often associated with a precipitating traumatic event, which leads to maladaptive post-stress adaptations and emergence of PTSD in patients. Thus, social isolation is considered to offer a suitable model to study vulnerability to PTSD.
# Ten (10) male Swiss-Webster mice were socially isolated for a period of 4 weeks, in individual cages, according to a protocol proposed by Pinna et al.
# Day 0—Training Test. During the training, mice were placed into the training chamber and allowed to explore it for 2 min. After this time, they received a conditioned stimulus (acoustic tone, 30 seconds, 85 dB) co-terminated with an unconditioned stimulus (electric foot shock, 2 s, 0.5 mA). This was repeated three times every 2 min. After the last stimuli, mice were allowed to explore the context for an additional minute before removal from the training chamber (total of 8 min).
# Day 1—Contextual Test. Twenty-four hours after training, the mice were placed in the contextual cage, and freezing behavior was measured for 5 min without tone or foot shock presentation. Freezing was defined by the absence of any movement except for those related to respiration while the animal was in a stereotypical crouching posture. Freezing time in a index of fear response.
# Days 2-5—Extinction Test. For contextual extinction experiments, mice were placed in the contextual cage for periods of 5 min over 4 consecutive days starting 24 h after the contextual test, and freezing behavior was measured.
# After the contextual test, 5 mice received a dose of 10 mg/kg of carpipramine subcutaneously. Injections were repeated on days 2 to 4.
# serotonin uptake = details: studies on metabolic fate and serotonin levels in the brain; cited from earlier work
# alpha-1 adrenoreceptors = details: cited from earlier work
# [6] = Example 6: veteran, sertraline first, switched to venlafaxine, olanzapine subsequently added
# [7] = Example 5: patient, fluoxetine as initial treatment, risperidone with psychological therapy
smiles,measurement,setting,value
CN[C@H]1CC[C@@H](c2ccc(Cl)c(Cl)c2)c2ccccc21 [Sertraline],"EPM-Open arm exploration % time in open arm, mean",[1],32.5%
same,clinical outcome of earlier treatments,PTSD patients; [6],no improvement
same,"Cue memory (during tone) % immobility time, mean",[2],25.7%
same,"Context memory % immobility time, mean",[3],37.1%
NC(=O)C1(N2CCCCC2)CCN(CCCN2c3ccccc3CCc3ccc(Cl)cc32)CC1 [clocapramine],affinity for DA receptors,DA receptors,high affinity
COc1ccc(C(CN(C)C)C2(O)CCCCC2)cc1 (stereo not drawn) [venlafaxine],clinical outcome of earlier treatments,PTSD patients; [6],"some improvement, but severe symptoms persisted"
NC(=O)C1(N2CCCCC2)CCN(CCCN2c3ccccc3CCc3ccccc32)CC1 [Carpipramine],"EPM-Open arm exploration % time in open arm, mean",[1],42.1%
same,clinical outcome of PTSD symptoms,"PTSD patients; Example 4: person, oral carpipramine 100 mg/daily with cognitive behavioural therapy",All PTSD symptoms improved markedly
same,clinical outcome,"PTSD patients; Example 5: patient, carpipramine 150 mg/day replacing risperidone, alongside fluoxetine",entered in remission two weeks later
same,time to remission,"PTSD patients; Example 6: first relapse, carpipramine initiated at 200 mg/day",4 weeks
same,time to remission,"PTSD patients; Example 6: recurrence about 3 years later, PTSD diagnosed, carpipramine 200 mg/day",3 weeks
same,Mean change in immobility time compared to pre-test,socially isolated mice [4],-104.3 s
same,affinity for DA receptors,DA receptors,high affinity
same,"Cue memory (during tone) % immobility time, mean",[2],14.6%
same,mean duration of freezing,"socially isolated mice [5]; day 1 contextual test, treated group before first injection (carpipramine 10 mg/kg s.c. given after the test)",117 s
same,"Change in duration of freezing, mean",socially isolated mice [5]; day 2,-76 s
same,"Change in duration of freezing, mean",socially isolated mice [5]; day 3,-93 s
same,"Change in duration of freezing, mean",socially isolated mice [5]; day 4,-98 s
same,"Change in duration of freezing, mean",socially isolated mice [5]; day 5,-99 s
same,duration of freezing decreased to,"socially isolated mice [5]; treated group after extinction tests, carpipramine 10 mg/kg s.c. day 1 and days 2 to 4, p<0.01 vs control",18 s
same,effect on serotonin uptake,serotonin uptake,did not modify serotonin uptake
same,"Context memory % immobility time, mean",[3],22.3%
Fc1ccc([C@@H]2CCNC[C@H]2COc2ccc3c(c2)OCO3)cc1 [Paroxetine],Mean change in immobility time compared to pre-test,socially isolated mice [4],-82.2 s
CN(C)CCC=C1c2ccccc2CCc2ccccc21 [Amitriptyline],"EPM-Open arm exploration % time in open arm, mean",[1],20.6%
same,"Cue memory (during tone) % immobility time, mean",[2],42.7%
same,"Context memory % immobility time, mean",[3],64.5%
OCCOCCN1CCN(C2=Nc3ccccc3Sc3ccccc32)CC1 [Quetiapine],"EPM-Open arm exploration % time in open arm, mean",[1],28.7%
same,"Cue memory (during tone) % immobility time, mean",[2],39.3%
same,"Context memory % immobility time, mean",[3],53.4%
Cc1nc2n(c(=O)c1CCN1CCC(c3noc4cc(F)ccc34)CC1)CCCC2 [risperidone],clinical outcome of earlier treatments,PTSD patients; [7],modest improvement
Cc1cc2c(s1)Nc1ccccc1N=C2N1CCN(C)CC1 [Olanzapine],Mean change in immobility time compared to pre-test,socially isolated mice [4],+19.5 seconds
CN(C)C(=O)N[C@H]1CC[C@H](CCN2CCN(c3cccc(Cl)c3Cl)CC2)CC1 [Cariprazine],affinity for alpha-1 adrenoreceptors,alpha-1 adrenoreceptors,low affinity
CNCCC(Oc1ccc(C(F)(F)F)cc1)c1ccccc1 (stereo not drawn) [fluoxetine],clinical outcome of earlier treatments,PTSD patients; [7],"improvement in most symptoms, but anxiety persisted"
